Test results as given in PubChem BioAssay (NCI).
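Abbreviation: GI50, concentration required for 50% inhibition of growth. TGI marks complete inhibition of growth.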

Assays:
Assay in all cases: growth of human tumour cells (NCI), 384-well format
786-0 renal = tested on: 786-0 renal
A498 renal = tested on: A498 renal
A549 NSCLC = tested on: A549 NSCLC
ACHN renal = tested on: ACHN renal
BT-549 breast = tested on: BT-549 breast
CCRF-CEM leukemia = tested on: CCRF-CEM leukemia
COLO 205 colon = tested on: COLO 205 colon
DU-145 prostate = tested on: DU-145 prostate
HCC-2998 colon = tested on: HCC-2998 colon
HCT-116 colon = tested on: HCT-116 colon
HCT-15 colon = tested on: HCT-15 colon
HL-60(TB) leukemia = tested on: HL-60(TB) leukemia
HOP-92 NSCLC = tested on: HOP-92 NSCLC
HT29 colon = tested on: HT29 colon
IGROV1 ovarian = tested on: IGROV1 ovarian
K-562 leukemia = tested on: K-562 leukemia
KM12 colon = tested on: KM12 colon
LOX IMVI melanoma = tested on: LOX IMVI melanoma
MDA-MB-231 breast = tested on: MDA-MB-231 breast
MDA-MB-435 melanoma = tested on: MDA-MB-435 melanoma
MDA-MB-468 breast = tested on: MDA-MB-468 breast
MOLT-4 leukemia = tested on: MOLT-4 leukemia
NCI-H226 lung = tested on: NCI-H226 lung
NCI-H23 lung = tested on: NCI-H23 lung
NCI-H460 NSCLC = tested on: NCI-H460 NSCLC
NCI-H522 lung = tested on: NCI-H522 lung
NCI/ADR-RES ovarian = tested on: NCI/ADR-RES ovarian
OVCAR-3 ovarian = tested on: OVCAR-3 ovarian
OVCAR-4 ovarian = tested on: OVCAR-4 ovarian
OVCAR-5 ovarian = tested on: OVCAR-5 ovarian
PC-3 prostate = tested on: PC-3 prostate
RPMI-8226 leukemia = tested on: RPMI-8226 leukemia
RXF 393 renal = tested on: RXF 393 renal
SF-268 CNS = tested on: SF-268 CNS
SF-295 CNS = tested on: SF-295 CNS
SF-539 CNS = tested on: SF-539 CNS
SK-MEL-2 melanoma = tested on: SK-MEL-2 melanoma
SK-MEL-28 melanoma = tested on: SK-MEL-28 melanoma
SK-MEL-5 melanoma = tested on: SK-MEL-5 melanoma
SN12C renal = tested on: SN12C renal
SNB-75 CNS = tested on: SNB-75 CNS
SR leukemia = tested on: SR leukemia
T-47D breast = tested on: T-47D breast
TK-10 renal = tested on: TK-10 renal
U251 glioblastoma = tested on: U251 glioblastoma
UACC-257 melanoma = tested on: UACC-257 melanoma
UO-31 renal = tested on: UO-31 renal

CNC(=O)c1ccc(-c2cnc3ncc(Cc4ccc5ncccc5c4)n3n2)cc1F
GI50 ([…]-0 renal): > 87.7 µM
TGI (786-0 renal): > 100 µM
GI50 (A498 renal): > 100 µM
TGI (A498 renal): > 100 µM
GI50 (A549 NSCLC): > 100 µM
TGI (A549 NSCLC): > 100 µM
GI50 (ACHN renal): > 100 µM
TGI (ACHN renal): > 100 µM
GI50 (BT-549 breast): > 100 µM
TGI (BT-549 breast): > 100 µM
GI50 (CCRF-CEM leukemia): > 100 µM
TGI (CCRF-CEM leukemia): > 100 µM
GI50 (COLO 205 colon): > 100 µM
TGI (COLO 205 colon): > 100 µM
GI50 (DU-145 prostate): > 100 µM
TGI (DU-145 prostate): > 100 µM
GI50 (HCC-2998 colon): > 100 µM
TGI (HCC-2998 colon): > 100 µM
GI50 (HCT-116 colon): > 100 µM
TGI (HCT-116 colon): > 100 µM
GI50 (HCT-15 colon): > 100 µM
TGI (HCT-15 colon): > 100 µM
GI50 (HL-60(TB) leukemia): > 100 µM
TGI (HL-60(TB) leukemia): > 100 µM
GI50 (HOP-92 NSCLC): > 75 µM
TGI (HOP-92 NSCLC): > 100 µM
GI50 (HT29 colon): > 100 µM
TGI (HT29 colon): > 100 µM
GI50 (IGROV1 ovarian): > 100 µM
TGI (IGROV1 ovarian): > 100 µM
GI50 (K-562 leukemia): > 100 µM
TGI (K-562 leukemia): > 100 µM
GI50 (KM12 colon): > 77.3 µM
TGI (KM12 colon): > 100 µM
GI50 (LOX IMVI melanoma): > 100 µM
TGI (LOX IMVI melanoma): > 100 µM
GI50 (MDA-MB-231 breast): > 100 µM
TGI (MDA-MB-231 breast): > 100 µM
GI50 (MDA-MB-435 melanoma): > 100 µM
TGI (MDA-MB-435 melanoma): > 100 µM
GI50 (MDA-MB-468 breast): > 100 µM
TGI (MDA-MB-468 breast): > 100 µM
GI50 (MOLT-4 leukemia): > 100 µM
TGI (MOLT-4 leukemia): > 100 µM
GI50 (NCI-H226 lung): > 100 µM
TGI (NCI-H226 lung): > 100 µM
GI50 (NCI-H23 lung): > 100 µM
TGI (NCI-H23 lung): > 100 µM
GI50 (NCI-H460 NSCLC): > 100 µM
TGI (NCI-H460 NSCLC): > 100 µM
GI50 (NCI-H522 lung): > 100 µM
TGI (NCI-H522 lung): > 100 µM
GI50 (NCI/ADR-RES ovarian): > 100 µM
TGI (NCI/ADR-RES ovarian): > 100 µM
GI50 (OVCAR-3 ovarian): > 100 µM
TGI (OVCAR-3 ovarian): > 100 µM
GI50 (OVCAR-4 ovarian): > 100 µM
TGI (OVCAR-4 ovarian): > 100 µM
GI50 (OVCAR-5 ovarian): > 100 µM
TGI (OVCAR-5 ovarian): > 100 µM
GI50 (PC-3 prostate): > 100 µM
TGI (PC-3 prostate): > 100 µM
GI50 (RPMI-8226 leukemia): > 100 µM
TGI (RPMI-8226 leukemia): > 100 µM
GI50 (RXF 393 renal): > 43.1 µM
TGI (RXF 393 renal): > 100 µM
GI50 (SF-268 CNS): > 76.9 µM
TGI (SF-268 CNS): > 100 µM
GI50 (SF-295 CNS): > 72.6 µM
TGI (SF-295 CNS): > 100 µM
GI50 (SF-539 CNS): > 100 µM
TGI (SF-539 CNS): > 100 µM
GI50 (SK-MEL-2 melanoma): > 100 µM
TGI (SK-MEL-2 melanoma): > 100 µM
GI50 (SK-MEL-28 melanoma): > 100 µM
TGI (SK-MEL-28 melanoma): > 100 µM
GI50 (SK-MEL-5 melanoma): > 100 µM
TGI (SK-MEL-5 melanoma): > 100 µM
GI50 (SN12C renal): > 77.6 µM
TGI (SN12C renal): > 100 µM
GI50 (SNB-75 CNS): > 61.6 µM
TGI (SNB-75 CNS): > 94.5 µM
GI50 (SR leukemia): > 50.9 µM
TGI (SR leukemia): > 100 µM
GI50 (T-47D breast): > 100 µM
TGI (T-47D breast): > 100 µM
GI50 (TK-10 renal): > 100 µM
TGI (TK-10 renal): > 100 µM
GI50 (U251 glioblastoma): > 100 µM
TGI (U251 glioblastoma): > 100 µM
GI50 (UACC-257 melanoma): > 100 µM
TGI (UACC-257 melanoma): > 100 µM
GI50 (UO-31 renal): > 100 µM
TGI (UO-31 renal): > 100 µM
